According to ChEMBL document CHEMBL1122681, “(Acylaryloxy)acetic acid diuretics. 5. [(2-Alkyl- and 2,2-disubstituted-1,3-dioxo-5-indanyl)oxy]acetic acids” (J Med Chem, 1984):

Tests used:
Pan troglodytes [1] = assay: (§1) Compound was evaluated for diuretic activity in chimpanzee measured as increase in volume of urine at 1 mg/kg; assay type: ADME, organism-based; design: dose 1 mg/kg; conditions: in vivo
Pan troglodytes [2] = assay: Compound was evaluated for diuretic activity in chimpanzee measured as increase in volume of urine at 5 mg/kg; assay type: functional
Pan troglodytes [3] = assay: Compound was evaluated for diuretic activity in chimpanzee measured as clearance of […] and urate after intra venous administration of 5 mg/kg.; assay type: functional, Urine
Pan troglodytes [4] = assay: Compound was evaluated for diuretic activity in chimpanzee measured as clearance of […] and urate after peroral administration of 5 mg/kg; assay type: functional, Urine; conditions: route oral
Pan troglodytes [5] = assay: (§2) Compound was evaluated for diuretic activity in chimpanzee measured as increase in the number of microequivalents of Na+ /min at 1 mg/kg; assay type: functional, Urine
Pan troglodytes [6] = assay: Compound was evaluated for diuretic activity in chimpanzee measured as increase in the number of microequivalents of Na+ /min at 5 mg/kg; assay type: functional, Urine
Pan troglodytes [7] = assay: Compound was evaluated for diuretic activity in chimpanzee measured as increase in the number of microequivalents of Cl- electrolyte/min at 1 mg/kg; assay type: functional, Urine
Pan troglodytes [8] = assay: Compound was evaluated for diuretic activity in chimpanzee measured as increase in the number of microequivalents of K+ /min at 1 mg/kg; assay type: functional, Urine
Pan troglodytes [9] = assay: Compound was evaluated for diuretic activity in chimpanzee measured as increase in the number of microequivalents of K+ /min at 5 mg/kg; assay type: functional, Urine
Pan troglodytes [10] = assay: Compound was evaluated for diuretic activity in chimpanzee measured as increase in the number of microequivalents of cl-/min at 5 mg/kg; assay type: functional, Urine
Canis familiaris [11] = assay: Compound was evaluated for diuretic activity, in female mongrel dogs by measuring volume of urine, after iv administration of 5 mg/kg (control/compound treatment results) Control = 1; assay type: ADME, organism-based, Canis lupus familiaris; design: dose 5 mg/kg, route intravenous; conditions: dog, in vivo
Canis familiaris [12] = species on record: Canis familiaris; assay: Volume of urine in dog; assay type: ADME, organism-based, Canis lupus familiaris; conditions: in vivo
[13] = volume of urine at 3 mg/kg; assay type: ADME, organism-based; design: dose 3 mg/kg; conditions: in vivo
[14] = volume of urine at 81 mg/kg; assay type: ADME, organism-based; design: dose 81 mg/kg; conditions: in vivo
[15] = volume of urine at 9 mg/kg; assay type: ADME, organism-based; design: dose 9 mg/kg; conditions: in vivo
Pan troglodytes [16] = assay: as §1; assay type: functional
Pan troglodytes [17] = assay: Compound was evaluated for diuretic activity in chimpanzee measured as clearance of […] and urate after intra venous administration of 1 mg/kg.; assay type: functional, Urine
Pan troglodytes [18] = assay: Compound was evaluated for diuretic activity in chimpanzee measured as increase in the number of microequivalents of Cl- electrolyte/min at 5 mg/kg; assay type: functional, Urine
Canis familiaris [19] = assay: Compound was evaluated for diuretic activity, in female mongrel dogs by measuring amount of K+ in urine after iv administration of 5 mg/kg (control/compound treatment results) Control = 13; assay type: functional, Canis lupus familiaris
Canis familiaris [20] = assay: Compound was evaluated for diuretic activity, in female mongrel dogs by measuring amount of Cl- in urine after iv administration of 5 mg/kg (control/compound treatment results) Control = 6; assay type: functional, Canis lupus familiaris
Canis familiaris [21] = assay: Compound was evaluated for diuretic activity, in female mongrel dogs by measuring amount of Na+ in urine after iv administration of 5 mg/kg (control/compound treatment results) Control = 79; assay type: functional, Canis lupus familiaris
Canis familiaris [22] = assay: Compound was evaluated for diuretic activity, administered orally in female mongrel dogs (5 mg/kg) measured as milliequivalents of Cl-; assay type: functional, Canis lupus familiaris, Urine
Canis familiaris [23] = assay: Compound was evaluated for diuretic activity, administered orally in female mongrel dogs (5 mg/kg) measured as milliequivalents of K; assay type: functional, Canis lupus familiaris, Urine
Canis familiaris [24] = assay: Compound was evaluated for diuretic activity, administered orally in female mongrel dogs (5 mg/kg) measured as milliequivalents of Na; assay type: functional, Canis lupus familiaris, Urine
Rattus norvegicus [25] = assay: Compound was evaluated for diuretic activity administered orally in female rats measured as milliequivalents of Na+x 100 / cage at 81 mg/kg; assay type: functional, Urine; conditions: route oral
Rattus norvegicus [26] = assay: Compound was evaluated for diuretic activity administered orally in female rats measured as milliequivalents of Na+x 100 / cage at 9 mg/kg; assay type: functional, Urine; conditions: route oral
Rattus norvegicus [27] = assay: Compound was evaluated for diuretic activity administered orally in female rats measured as milliequivalents of Cl-+x 100 / cage at 27 mg/kg; assay type: functional, Urine; conditions: route oral
Rattus norvegicus [28] = assay: Compound was evaluated for diuretic activity administered orally in female rats measured as milliequivalents of Cl-x 100 / cage at 3 mg/kg; assay type: functional, Urine; conditions: route oral
Rattus norvegicus [29] = assay: Compound was evaluated for diuretic activity administered orally in female rats measured as milliequivalents of Cl-x 100 / cage at 81 mg/kg; assay type: functional, Urine; conditions: route oral
Rattus norvegicus [30] = assay: Compound was evaluated for diuretic activity administered orally in female rats measured as milliequivalents of Cl-x 100 / cage at 9 mg/kg; assay type: functional, Urine; conditions: route oral
Rattus norvegicus [31] = assay: Compound was evaluated for diuretic activity administered orally in female rats measured as milliequivalents of K+x 100 / cage at 27 mg/kg; assay type: functional, Urine; conditions: route oral
Rattus norvegicus [32] = assay: Compound was evaluated for diuretic activity administered orally in female rats measured as milliequivalents of K+x 100 / cage at 3 mg/kg; assay type: functional, Urine; conditions: route oral
Rattus norvegicus [33] = assay: Compound was evaluated for diuretic activity administered orally in female rats measured as milliequivalents of K+x 100 / cage at 81 mg/kg; assay type: functional, Urine; conditions: route oral
Rattus norvegicus [34] = assay: Compound was evaluated for diuretic activity administered orally in female rats measured as milliequivalents of K+x 100 / cage at 9 mg/kg; assay type: functional, Urine; conditions: route oral
Rattus norvegicus [35] = assay: Compound was evaluated for diuretic activity administered orally in female rats measured as milliequivalents of Na+x 100 / cage at 27 mg/kg; assay type: functional, Urine; conditions: route oral
Rattus norvegicus [36] = assay: Compound was evaluated for diuretic activity administered orally in female rats measured as milliequivalents of Na+x 100 / cage at 3 mg/kg; assay type: functional, Urine; conditions: route oral
[37] = volume of urine at 27 mg/kg; assay type: ADME, organism-based; design: dose 27 mg/kg; conditions: in vivo
Canis familiaris [38] = assay: Compound was evaluated for diuretic activity, in female mongrel dogs by measuring volume of urine, after iv administration of 5 mg/kg (control/compound treatment results) Control = 2; assay type: ADME, organism-based, Canis lupus familiaris; design: dose 5 mg/kg, route intravenous; conditions: dog, in vivo
Pan troglodytes [39] = assay: Compound was evaluated for diuretic activity in chimpanzee measured as clearance of […] and urate after intravenous administration of 1 mg/kg; assay type: functional, Urine
Pan troglodytes [40] = assay: as §2; assay type: functional, Urine; remark: listed apart in the source
Canis familiaris [41] = assay: Compound was evaluated for diuretic activity, in female mongrel dogs by measuring amount of K+ in urine after iv administration of 5 mg/kg (control/compound treatment results) Control = 10; assay type: functional, Canis lupus familiaris
Canis familiaris [42] = assay: Compound was evaluated for diuretic activity, in female mongrel dogs by measuring amount of Cl- in urine after iv administration of 5 mg/kg (control/compound treatment results) Control = 5; assay type: functional, Canis lupus familiaris
Canis familiaris [43] = assay: Compound was evaluated for diuretic activity, in female mongrel dogs by measuring amount of Na+ in urine after iv administration of 5 mg/kg (control/compound treatment results) Control = 35; assay type: functional, Canis lupus familiaris

For `CCC1C(=O)c2cc(OC)c(Cl)c(Cl)c2C1=O` (centres undefined), the Increase in volume (Pan troglodytes [1]) was 0.1 mL/min, the Increase in volume (Pan troglodytes [2]) was 0.1 mL/min and the “Delta C urate / delta C insulin” value (Pan troglodytes [3]) was 0. The “Delta C urate / delta C insulin” value (Pan troglodytes [4]) was 0.008, the Increase (Pan troglodytes [5]) was 3 and the Increase (Pan troglodytes [6]) was 4. It also gave an Increase (Pan troglodytes [7]) of 13, an Increase (Pan troglodytes [8]) of 26 and an Increase (Pan troglodytes [9]) of 27. For the same molecule, the Increase (Pan troglodytes [10]) was 10.

In the case of `CCC1(CC)C(=O)c2cc(OCC(=O)O)c(C)c(Cl)c2C1=O`, the Urine volume (Canis familiaris [11]) is reported as 2 mL/min, the Urine volume (Canis familiaris [12]) is reported as 570 mL and the Urine volume [13] is reported as 27 mL. It also gave a Urine volume [14] of 38 mL, a Urine volume [15] of 26 mL and an Increase in volume (Pan troglodytes [16]) of 0.4 mL/min. The Increase in volume (Pan troglodytes [2]) was 2.7 mL/min, the “Delta C urate / delta C insulin” value (Pan troglodytes [17]) was 0.082 and the “Delta C urate / delta C insulin” value (Pan troglodytes [4]) was 0.138. It also gave an Increase (Pan troglodytes [5]) of 25, an Increase (Pan troglodytes [6]) of 290 and an Increase (Pan troglodytes [7]) of 123. It also gave an Increase (Pan troglodytes [18]) of 285, an Increase (Pan troglodytes [8]) of 131 and an Activity (Canis familiaris [19]) of 27 u equiv min-1. It also gave an Activity (Canis familiaris [20]) of 157 u equiv min-1, an Increase (Pan troglodytes [9]) of 132 and an Activity (Canis familiaris [21]) of 259 u equiv min-1. The Activity (Canis familiaris [22]) was 10, the Activity (Canis familiaris [23]) was 5 and the Activity (Canis familiaris [24]) was 7. It also gave an Activity (Rattus norvegicus [25]) of 251, an Activity (Rattus norvegicus [26]) of 92 and an Activity (Rattus norvegicus [27]) of 222. The Activity (Rattus norvegicus [28]) was 82, the Activity (Rattus norvegicus [29]) was 369 and the Activity (Rattus norvegicus [30]) was 124. It also gave an Activity (Rattus norvegicus [31]) of 62, an Activity (Rattus norvegicus [32]) of 29 and an Activity (Rattus norvegicus [33]) of 106. For the same molecule, the Activity (Rattus norvegicus [34]) was 43, the Activity (Rattus norvegicus [35]) was 158 and the Activity (Rattus norvegicus [36]) was 70. For the same molecule, the Urine volume [37] was 33 mL.

Molecule `Cc1c(OCC(=O)O)cc2c(c1Cl)C(=O)C(C)(C1CCCC1)C2=O` (centres undefined) has a Urine volume [13] of 24 mL, a Urine volume [14] of 25 mL and a Urine volume [15] of 27 mL. It also gave a Urine volume (Canis familiaris [38]) of 2 mL/min, an Increase in volume (Pan troglodytes [16]) of 0.6 mL/min and an Increase in volume (Pan troglodytes [2]) of 0 mL/min. The “Delta C urate / delta C insulin” value (Pan troglodytes [39]) was 0.204, the “Delta C urate / delta C insulin” value (Pan troglodytes [4]) was 0.149 and the Increase (Pan troglodytes [40]) was 82. The Increase (Pan troglodytes [6]) was 388, the Increase (Pan troglodytes [7]) was 129 and the Increase (Pan troglodytes [18]) was 527. It also gave an Increase (Pan troglodytes [8]) of 51, an Activity (Canis familiaris [41]) of 41 u equiv min-1 and an Activity (Canis familiaris [42]) of 48 u equiv min-1. It also gave an Increase (Pan troglodytes [9]) of 54, an Activity (Canis familiaris [43]) of 132 u equiv min-1 and an Activity (Rattus norvegicus [25]) of 76. It also gave an Activity (Rattus norvegicus [26]) of 41, an Activity (Rattus norvegicus [27]) of 40 and an Activity (Rattus norvegicus [28]) of 17. It also gave an Activity (Rattus norvegicus [29]) of 86, an Activity (Rattus norvegicus [30]) of 30 and an Activity (Rattus norvegicus [31]) of 22. For the same molecule, the Activity (Rattus norvegicus [32]) was 21, the Activity (Rattus norvegicus [33]) was 36 and the Activity (Rattus norvegicus [34]) was 24. For the same molecule, the Activity (Rattus norvegicus [35]) was 50, the Activity (Rattus norvegicus [36]) was 19 and the Urine volume [37] was 27 mL.
